Values after ≈ are worked out from the molar mass of the structure shown. Values joined by “and” are separate entries in the source; they are usually repeats but may differ in a detail not shown here. Equal entries are not always repeated.
How the values were obtained:
GTPase KRas [1] = biological target: GTPase KRas (Homo sapiens, UniProt P01116, C118A/G12C); experiment: Inhibition of GDP bound recombinant human His-tagged KRAS G12C/C118A mutant (1 to 169 residues) assessed as reduction in SOS1-mediated GDP/GTP nucleotide exchange by measuring the disruption between GDP-bound recombinant His-tagged KRAS G12C/C118A (1 to 169 residues) and Ras binding domain of GST-tagged c-RAF (1 to 149 residues) preincubated for 5 mins followed by SOS1 and GTP addition and further incubated for 30 mins by AlphaLISA assay
GTPase KRas [2] = biological target: GTPase KRas (Homo sapiens, UniProt P01116); experiment: Inhibition of KRAS in human MIAPaca2 cells assessed as decrease in EGF-stimulated ERK1/2 phosphorylation preincubated for 2 hrs followed by EGF stimulation; format: cell-based
[3] = Intrinsic clearance in human cryopreserved hepatocytes assessed per 10^6 cells at 0.5 uM measured upto 60 mins by LCMS analysis; format: ADME, cell-based, Hepatocyte; conditions: read-out: CLH
[4] = Solubility of compound in PBS buffer at pH 7.4 incubated for 48 to 72 hrs under shaking conditions by LCMS analysis; format: physicochemical
[5] = Half life in BALB/c mouse at 1 mg/kg, iv or 10 mg/kg, po; format: ADME, organism-based; conditions: in vivo
[6] = Permeability of compound across apical to basolateral membrane in MDCK2 cells at 10 to 50 uM incubated for 2 hrs under shaking condition by LC-MS/MS analysis; format: ADME, cell-based, Canis lupus familiaris, MDCK-II; conditions: dog, MDCK; read-out: permeability
[7] = Intrinsic clearance in mouse cryopreserved hepatocytes assessed per 10^6 cells at 0.5 uM measured upto 60 mins by LCMS analysis; format: ADME, cell-based, Hepatocyte; conditions: read-out: CLH
[8] = Oral bioavailability in BALB/c mouse at 10 mg/kg; format: ADME, organism-based; conditions: in vivo
[9] = Volume of distribution at steady state in BALB/c mouse at 1 mg/kg, iv or 10 mg/kg, po; format: ADME, organism-based; conditions: in vivo, read-out: Vdss
[10] = Solubility of compound in 0.01N HCl at pH 2 incubated for 48 to 72 hrs under shaking conditions by LCMS analysis; format: physicochemical
MIA PaCa-2 = experiment: Antiproliferative activity against human MIAPaCa2 cells harboring KRAS G12C point mutant assessed as cell growth inhibition after 72 hrs by Celltiter-Glo luminescent cell viability assay; format: functional, cell-based; conditions: MIA PaCa-2, 72 h
[11] = Clearance in BALB/c mouse at 1 mg/kg, iv or 10 mg/kg, po; format: ADME, organism-based; conditions: in vivo
[12] = Solubility of compound in FaSSIF incubated for 48 to 72 hrs under shaking conditions by LCMS analysis; format: physicochemical
A549 = experiment: Antiproliferative activity against human A549 cells harboring KRAS G12S point mutant assessed as cell growth inhibition after 72 hrs by Celltiter-Glo luminescent cell viability assay; format: functional, cell-based; conditions: A549, 72 h

hepatocyte CLint at 0.5 µM [3] | solubility thermodynamic [4] | half-life [5] | Papp A→B at 2 h, up to 50 µM [6] | hepatocyte CLint at 0.5 µM [7] | bioavailability [8] | Vd [9] | solubility thermodynamic [10] | IC50 (MIA PaCa-2) | clearance [11] | solubility thermodynamic [12] | IC50 (A549) | Structure (SMILES) | IC50 (GTPase KRas [1]) | IC50 (GTPase KRas [2])
 |  |  |  |  |  |  |  |  |  |  |  | C=CC(=O)N1CCN(c2ncnc3c(F)c(-c4c(O)cccc4F)c(Cl)cc23)CC1 | 939 nM | 831 nM
 |  |  |  |  |  |  |  |  |  |  |  | C=CC(=O)N1CCN(c2nnc(-c3ccccc3)c3cc(-c4c(O)cccc4F)c(Cl)cc23)CC1 | 20100 nM | 58000 nM
37 µL/min/1e6 cells | 41 µM (≈ 22.9 µg/mL) | 30 min | 22 ×10⁻⁶ cm/s | 111 µL/min/1e6 cells | < 0.5% | 1.1 L/kg | 24 µM (≈ 13.4 µg/mL) | 11 nM | 33.3 mL/min/kg | 164 µM (≈ 91.8 µg/mL) | 11.6 µM | C=CC(=O)N1CCN(c2nc(=O)n(-c3c(C)cccc3C(C)C)c3nc(-c4c(O)cccc4F)c(F)cc23)[C@@H](C)C1 |  | 
 |  |  |  |  |  |  |  |  |  |  |  | C=CC(=O)N1CCN(c2nnc(-c3ccccc3C)c3cc(-c4c(O)cccc4F)c(Cl)cc23)CC1 | 5710 nM | 3330 nM
5 µL/min/1e6 cells | 335 µM (≈ 193 µg/mL) | 24 min | 2 ×10⁻⁶ cm/s | 96 µL/min/1e6 cells | < 0.5% | 1.4 L/kg | 534 µM (≈ 308 µg/mL) | 3 nM | 23.3 mL/min/kg | 435 µM (≈ 251 µg/mL) | 32.4 µM | C=CC(=O)N1CCN(c2nc(=O)n(-c3c(C(C)C)ccnc3C)c3nc(-c4c(O)cccc4F)c(Cl)cc23)[C@@H](C)C1 |  | 
5 µL/min/1e6 cells | 499 µM (≈ 288 µg/mL) | 18 min | 1 ×10⁻⁶ cm/s | 139 µL/min/1e6 cells | < 0.5% | 0.4 L/kg | 421 µM (≈ 243 µg/mL) | 3 nM | 58.3 mL/min/kg | 500 µM (≈ 289 µg/mL) | > 50 µM | C=CC(=O)N1CCN(c2nc(=O)n(-c3c(C)ncnc3C(C)C)c3nc(-c4c(O)cccc4F)c(Cl)cc23)[C@@H](C)C1 |  | 
148 µL/min/1e6 cells |  |  | 3 ×10⁻⁶ cm/s | 270 µL/min/1e6 cells |  |  |  | 40 nM |  | 218 µM (≈ 130 µg/mL) | 7.4 µM | C=CC(=O)N1CCN(c2nc(=O)n(-c3ccccc3C(C)C)c3cc(-c4ccccc4C(F)(F)F)c(Cl)cc23)[C@@H](C)C1 |  | 
32 µL/min/1e6 cells | 14 µM (≈ 7.67 µg/mL) | 90 min | 6 ×10⁻⁶ cm/s | 109 µL/min/1e6 cells | 1.3% | 0.5 L/kg | 14 µM (≈ 7.67 µg/mL) | 11 nM | 13.3 mL/min/kg | 204 µM (≈ 112 µg/mL) | 11.5 µM | C=CC(=O)N1CCN(c2nc(=O)n(-c3ccccc3C(C)C)c3nc(-c4c(O)cccc4F)c(Cl)cc23)CC1 |  | 
135 µL/min/1e6 cells | 11 µM (≈ 6.01 µg/mL) | 36 min | 20 ×10⁻⁶ cm/s | 236 µL/min/1e6 cells | 9% | 2.3 L/kg |  | 5 nM | 60 mL/min/kg | 224 µM (≈ 122 µg/mL) | 7.9 µM | C=CC(=O)N1CCN(c2nc(=O)n(-c3ccccc3C(C)C)c3nc(-c4ccccc4F)c(Cl)cc23)[C@@H](C)C1 |  | 
 |  |  |  |  |  |  |  |  |  |  |  | C=CC(=O)N1CCN(c2nnc(-c3ccccc3CC)c3cc(-c4c(O)cccc4F)c(Cl)cc23)CC1 | 903 nM | 2580 nM
 |  |  |  |  |  |  |  |  |  |  |  | C=CC(=O)N1CCN(c2nc(=O)n(-c3c(C)cccc3C)c3nc(-c4c(O)cccc4F)c(Cl)cc23)[C@@H](C)C1 |  | 199 nM
 |  |  |  |  |  |  |  |  |  |  |  | C=CC(=O)N1CCN(c2nc(=O)n(-c3ccccc3C(C)(C)C)c3nc(-c4c(O)cccc4F)c(Cl)cc23)[C@@H](C)C1 |  | 51 nM
166 µL/min/1e6 cells |  | 54 min | 10 ×10⁻⁶ cm/s | 356 µL/min/1e6 cells | 12% | 1.4 L/kg |  | 6 nM | 26.7 mL/min/kg | 260 µM (≈ 142 µg/mL) | 5.8 µM | C=CC(=O)N1CCN(c2nc(=O)n(-c3ccccc3C(C)C)c3cc(-c4ccccc4F)c(Cl)cc23)[C@@H](C)C1 |  | 
 |  |  |  |  |  |  |  |  |  |  |  | C=CC(=O)N1CCN(c2nnc(-c3ccccc3C3CC3)c3cc(-c4c(O)cccc4F)c(Cl)cc23)CC1 | 1550 nM | 7150 nM
 |  |  |  |  |  |  |  | 17 nM |  | 71 µM (≈ 41.1 µg/mL) | 2.7 µM | C=CC(=O)N1CCN(c2nc(=O)n(-c3ccccc3C(C)C)c3cc(-c4cc(O)cc5ccccc45)c(Cl)cc23)CC1 |  | 
 |  |  |  |  |  |  |  |  |  |  |  | C=CC(=O)N1CCN(c2nc(=O)n(-c3ncccc3C(C)C)c3nc(-c4c(O)cccc4F)c(Cl)cc23)[C@@H](C)C1 |  | 53 nM
 |  |  |  |  |  |  |  |  |  |  |  | C=CC(=O)N1CCN(c2nc(=O)n(-c3ccccc3C3CC3)c3nc(-c4c(O)cccc4F)c(Cl)cc23)[C@@H](C)C1 | 225 nM | 109 nM
 |  |  |  |  |  |  |  |  |  |  |  | C=CC(=O)N1CCN(c2nnc(-c3ccccc3C(C)C)c3cc(-c4c(O)cccc4F)c(Cl)cc23)CC1 | 683 nM | 1800 nM
197 µL/min/1e6 cells |  |  | 7 ×10⁻⁶ cm/s | 415 µL/min/1e6 cells |  |  |  | 22 nM |  | 344 µM (≈ 183 µg/mL) | 6.4 µM | C=CC(=O)N1CCN(c2nc(=O)n(-c3ccccc3C(C)C)c3cc(-c4ccccc4F)c(Cl)cc23)CC1 |  | 
205 µL/min/1e6 cells |  | 36 min | 12 ×10⁻⁶ cm/s | 319 µL/min/1e6 cells | 12% | 4.8 L/kg |  | 16 nM | 90 mL/min/kg | 175 µM (≈ 98.4 µg/mL) | 7.1 µM | C=CC(=O)N1CCN(c2nc(=O)n(-c3ccccc3C(C)C)c3nc(-c4ccccc4Cl)c(Cl)cc23)[C@@H](C)C1 |  | 
 |  |  |  |  |  |  |  |  |  |  |  | C=CC(=O)N1CCN(c2nnc(-c3ccccc3OC)c3cc(-c4c(O)cccc4F)c(Cl)cc23)CC1 | 9150 nM | 8050 nM
 |  |  |  |  |  |  |  |  |  |  |  | C=CC(=O)N1CCN(c2nc(=O)n(-c3ccnn3C(C)C)c3nc(-c4c(O)cccc4F)c(Cl)cc23)[C@@H](C)C1 |  | 218 nM
 |  |  |  |  |  |  |  |  |  |  |  | C=CC(=O)N1CCN(c2nnc(-c3ccccc3Cl)c3cc(-c4c(O)cccc4F)c(Cl)cc23)CC1 | 3520 nM | 3530 nM

Structure (SMILES) | hepatocyte CLint at 0.5 µM [3] | solubility thermodynamic [4] | half-life [5] | Papp A→B at 2 h, up to 50 µM [6] | hepatocyte CLint at 0.5 µM [7] | bioavailability [8] | Vd [9] | solubility thermodynamic [10] | IC50 (MIA PaCa-2) | clearance [11] | solubility thermodynamic [12] | IC50 (A549) | IC50 (GTPase KRas [1]) | IC50 (GTPase KRas [2])
C=CC(=O)N1CCN(c2nc(=O)n(-c3ccccc3C(C)C)c3cc(-c4ccccc4Cl)c(Cl)cc23)[C@@H](C)C1 | 317 µL/min/1e6 cells |  |  | 6 ×10⁻⁶ cm/s | 397 µL/min/1e6 cells |  |  |  | 18 nM |  | 255 µM (≈ 143 µg/mL) | 7.4 µM |  | 220 nM
C=CC(=O)N1CCN(c2nc(=O)n(-c3ccccc3C(C)C)c3cc(-c4c(O)cccc4F)c(Cl)cc23)[C@@H](C)C1 | 113 µL/min/1e6 cells |  |  | 1 ×10⁻⁶ cm/s | 263 µL/min/1e6 cells |  |  |  | 14 nM |  | 226 µM (≈ 127 µg/mL) | 15.3 µM |  | 28 nM
C=CC(=O)N1CCN(c2nc(=O)n(-c3ccccc3C(C)C)c3cc(-c4c(C)ccc5[nH]ncc45)c(Cl)cc23)CC1 | 121 µL/min/1e6 cells |  | 168 min | 4 ×10⁻⁶ cm/s | 180 µL/min/1e6 cells | < 0.5% | 5.3 L/kg |  | 4 nM | 70 mL/min/kg | 218 µM (≈ 124 µg/mL) | 1.7 µM |  | 8 nM
C=CC(=O)N1CCN(c2nc(=O)n(-c3ccccc3C(C)C)c3cc(-c4c(O)cccc4F)c(Cl)cc23)CC1 | 56 µL/min/1e6 cells |  | 204 min | 2 ×10⁻⁶ cm/s | 195 µL/min/1e6 cells | < 0.5% | 0.8 L/kg |  | 33 nM | 5 mL/min/kg | 191 µM (≈ 104 µg/mL) | 10.3 µM | 101 nM | 335 nM and 130 nM
